# Laboratory results reported in US12233081B2, “Hygromycin a compounds and methods of treating spirochete diseases” (priority 2018, dated 2025).
# System: gut microbiome
# Experiment: gut microbiome 16S rRNA sequencing of stool of infected, treated mice
# Details: for Enterococcaceae change in percent relative abundance: 100 mg/kg
# [1] = oral 100 mg/kg every 12 hours for 5 days
smiles,measurement,setting,value
"CC1(C)S[C@@H]2[C@H](NC(=O)[C@H](N)c3ccc(O)cc3)C(=O)N2[C@H]1C(=O)O [Amox, amoxicillin]",Francisellaceae change in percent relative abundance,IP 100 mg/kg every 12 hours for 5 days,0.001%
same,Aerococcaceae change in percent relative abundance,[1],0.000%
same,Anaerolineaceae change in percent relative abundance,[1],0.000%
same,Anaeroplasmataceae change in percent relative abundance,[1],−0.048%
same,Anaplasmataceae change in percent relative abundance,[1],0.000%
same,Aspergillaceae change in percent relative abundance,[1],0.000%
same,Asteraceae change in percent relative abundance,[1],0.003%
same,Bacillaceae change in percent relative abundance,[1],0.002%
same,Bacillales change in percent relative abundance,[1],−0.100%
same,Bacteroidaceae change in percent relative abundance,[1],−8.426%
same,Bifidobacteriaceae change in percent relative abundance,[1],−0.124%
same,Brucellaceae change in percent relative abundance,[1],0.001%
same,Camobacteriaceae change in percent relative abundance,[1],−0.002%
same,Chitinophagaceae change in percent relative abundance,[1],0.000%
same,Christensenellaceae change in percent relative abundance,[1],0.000%
same,Clostridiaceae change in percent relative abundance,[1],−6.891%
same,Clostridiales change in percent relative abundance,[1],−0.099%
same,Clostridiales family xi. incertae sedis change in percent relative abundance,[1],−0.027%
same,Clostridiales family xiii. incertae sedis change in percent relative abundance,[1],−0.011%
same,Coriobacteriaceae change in percent relative abundance,[1],−0.019%
same,Corynebacteriaceae change in percent relative abundance,[1],0.000%
same,Cytophagaceae change in percent relative abundance,[1],−0.001%
same,Deferribacteraceae change in percent relative abundance,[1],−0.085%
same,Defluviitaleaceae change in percent relative abundance,[1],−0.001%
same,Desulfobacteraceae change in percent relative abundance,[1],0.000%
same,Enterobacteriaceae change in percent relative abundance,[1],−1.496%
same,Erysipelotrichaceae change in percent relative abundance,[1],−2.932%
same,Eubacteriaceae change in percent relative abundance,[1],4.510%
same,Fabaceae change in percent relative abundance,[1],0.001%
same,Flavobacteriaceae change in percent relative abundance,[1],0.000%
same,Francisellaceae change in percent relative abundance,[1],−0.001%
same,Fusobacteriaceae change in percent relative abundance,[1],0.000%
same,Gammaproteobacteria change in percent relative abundance,[1],−0.027%
same,Gloeobacteraceae change in percent relative abundance,[1],−0.013%
same,Gracilibacteraceae change in percent relative abundance,[1],−0.105%
same,Halomonadaceae change in percent relative abundance,[1],0.001%
same,Hylidae change in percent relative abundance,[1],0.002%
same,Kopriimonadaceae change in percent relative abundance,[1],0.000%
same,Lachnospiraceae change in percent relative abundance,[1],−5.482%
same,Lactobacillaceae change in percent relative abundance,[1],−15.023%
same,Leuconostocaceae change in percent relative abundance,[1],0.002%
same,Methylobacteriaceae change in percent relative abundance,[1],0.000%
same,Microbacteriaceae change in percent relative abundance,[1],0.000%
same,Mucoraceae change in percent relative abundance,[1],0.002%
same,Nostocaceae change in percent relative abundance,[1],0.001%
same,Onagraceae change in percent relative abundance,[1],0.000%
same,Oscillatoriales change in percent relative abundance,[1],0.069%
same,Oscillospiraceae change in percent relative abundance,[1],−0.005%
same,Paenibacillaceae change in percent relative abundance,[1],−0.001%
same,Pasteurellaceae change in percent relative abundance,[1],0.000%
same,Pelobacteraceae change in percent relative abundance,[1],0.000%
same,Peptococcaceae change in percent relative abundance,[1],−0.948%
same,Peptoniphilaceae change in percent relative abundance,[1],0.000%
same,Peptostreptococcaceae change in percent relative abundance,[1],−0.187%
same,Physalacriaceae change in percent relative abundance,[1],0.000%
same,Poaceae change in percent relative abundance,[1],0.107%
same,Polyangiaceae change in percent relative abundance,[1],0.000%
same,Porphyromonadaceae change in percent relative abundance,[1],−19.192%
same,Prevotellaceae change in percent relative abundance,[1],−0.240%
same,Pseudomonadaceae change in percent relative abundance,[1],0.000%
same,Rhizobiaceae change in percent relative abundance,[1],0.001%
same,Rhodobacteraceae change in percent relative abundance,[1],0.000%
same,Rikenellaceae change in percent relative abundance,[1],−6.166%
same,Ruminococcaceae change in percent relative abundance,[1],−1.440%
same,Sphingomonadaceae change in percent relative abundance,[1],0.000%
same,Spirochaetaceae change in percent relative abundance,[1],−0.056%
same,Spiroplasmataceae change in percent relative abundance,[1],−0.004%
same,Staphylococcaceae change in percent relative abundance,[1],0.000%
same,Streptococcaceae change in percent relative abundance,[1],−2.376%
same,Thermoanaerobacteraceae change in percent relative abundance,[1],−0.028%
same,Veillonellaceae change in percent relative abundance,[1],0.001%
same,Verrucomicrobiaceae change in percent relative abundance,[1],−0.009%
same,Xanthomonadaceae change in percent relative abundance,[1],0.002%
same,all other commensal taxa such as Bacteroidaceae and Lactobacillaceae,[1],depleted
same,mice with Enterococcaceae blooms,[1],4/5
same,Enterococcaceae change in percent relative abundance,[1],75.807%
same,Enterococcaceae change in percent relative abundance,"oral 100 mg/kg every 12 hours for 5 days, listed as amoxicillin",75.8%
